Source: patent US12180187B2, “1-phenyl-5-azinylpyrazolyl-3-oxyalkyl acids and their use for controlling unwanted plant growth” (BAYER AKTIENGESELLSCHAFT, priority 2019, dated 2024)
Several values for one entry are separate records, joined by “and”; a condition that tells them apart may be missing. Equal entries are not always repeated.

Columns and labels:
MATIN [1] = experiment: Pre-emergence action against MATIN, 1280 g/ha; type: in vivo, Tripleurospermum inodorum (Matricaria inodora); details: scored visually after about 3 weeks vs untreated controls (100% = plants have died)
Outline: (§1)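 Activity was scored visually as percent versus untreated controls about 3 weeks after treatment (100% = dead plants, 0% = control-like). Compounds, formulated as wettable powders or emulsion concentrates, were sprayed onto the covering soil over freshly sown seeds in sandy loam, with 0.5% additive and 600 L/ha water.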

SETVI [2] = experiment: Pre-emergence action against SETVI, 1280 g/ha; type: in vivo, Setaria viridis; details: visual scoring after about 3 weeks vs untreated controls, 100% = plants have died, 0% = like control plants
Outline: as §1

POLCO = experiment: Pre-emergence action at 320 g/ha against POLCO; type: in vivo, Fallopia convolvulus (Polygonum convolvulus); details: visual scoring after about 3 weeks vs untreated controls
Outline: (§2)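 Visual % scoring at about 3 weeks post-treatment against untreated pots (0% = like control, 100% = dead), greenhouse-grown. Compounds applied at 320 g/ha as aqueous WP/EC suspension or emulsion plus 0.5% additive, 600 l/ha water, onto covering soil of freshly sown pots before emergence.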

MATIN [3] = experiment: Post-emergence action against MATIN, 1.28 kg/ha; type: in vivo, Tripleurospermum inodorum (Matricaria inodora); details: dosage 1280 g/ha, visual rating about 3 weeks after treatment vs untreated controls (100% = plants died)
Outline: (§3)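 Herbicidal action is estimated by eye after about three weeks under optimum greenhouse conditions, on a 0–100% scale against untreated plants. Compounds are applied post-emergence to one-leaf-stage weeds as aqueous WP or EC preparations containing 0.5% additive, sprayed at 600 L/ha.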

SETVI [4] = experiment: Pre-emergence action at 320 g/ha against SETVI; type: in vivo, Setaria viridis; details: visual scoring after about 3 weeks vs untreated controls
Outline: as §2

POAAN [5] = experiment: Pre-emergence action against POAAN, 1280 g/ha; type: in vivo, Poa annua; details: visual scoring after about 3 weeks vs untreated controls, 100% = plants have died, 0% = like control plants
Outline: as §1

AMARE [6] = experiment: Pre-emergence action at 320 g/ha against AMARE; type: in vivo, Amaranthus retroflexus; details: visual scoring after about 3 weeks vs untreated controls
Outline: as §2

DIGSA [7] = experiment: Pre-emergence action at 320 g/ha against DIGSA; type: in vivo, Digitaria sanguinalis; details: visual scoring after about 3 weeks vs untreated controls
Outline: as §2

MATIN [8] = experiment: Pre-emergence action at 320 g/ha against MATIN; type: in vivo, Tripleurospermum inodorum (Matricaria inodora); details: visual scoring after about 3 weeks vs untreated controls
Outline: as §2

VERPE = experiment: Pre-emergence action at 320 g/ha against VERPE; type: in vivo, Veronica persica; details: visual scoring after about 3 weeks vs untreated controls
Outline: as §2

STEME = experiment: Pre-emergence action against STEME, 1280 g/ha; type: in vivo, Stellaria media; details: scored visually after about 3 weeks vs untreated controls (100% = plants have died)
Outline: as §1

ECHCG = experiment: Pre-emergence action against ECHCG, 1280 g/ha; type: in vivo, Echinochloa crus-galli; details: visual scoring after about 3 weeks vs untreated controls, 100% = plants have died, 0% = like control plants
Outline: as §1

DIGSA [9] = experiment: Post-emergence action against DIGSA, 1.28 kg/ha; type: in vivo, Digitaria sanguinalis; details: dosage 1280 g/ha, visual rating about 3 weeks after treatment vs untreated controls
Outline: as §3

AMARE [10] = experiment: Pre-emergence action against AMARE, 1280 g/ha; type: in vivo, Amaranthus retroflexus; details: scored visually after about 3 weeks vs untreated controls (100% = plants have died)
Outline: as §1

POAAN [11] = experiment: Post-emergence action against POAAN, 1.28 kg/ha; type: in vivo, Poa annua; details: dosage 1280 g/ha, visual rating about 3 weeks after treatment vs untreated controls
Outline: as §3

ALOMY = experiment: Pre-emergence action at 320 g/ha against ALOMY; type: in vivo, Alopecurus myosuroides; details: scored visually after about 3 weeks vs untreated controls (100% = plants have died)
Outline: as §2

[12] = Tripleurospermum inodorum, 504 h

CCOC(=O)COc1nn(-c2ccccc2F)c(-c2ccc(F)nc2)c1Br [VII-012, Ethyl {[4-bromo-1-(2-fluorophenyl)-5-(6-fluoropyridin-3-yl)-1H-pyrazol-3-yl]oxy}acetate]
pest or weed control at 1280 g/ha (MATIN [1]; [12]): 100% | pest or weed control at 1280 g/ha (SETVI [2]; Setaria viridis, 504 h): 100% | pest or weed control at 320 g/ha (POLCO; Fallopia convolvulus, 504 h): 90% | Post-emergence action against MATIN (MATIN [3]): 100% and 90% | pest or weed control at 320 g/ha (SETVI [4]; Setaria viridis, 504 h): 100% | pest or weed control at 1280 g/ha (POAAN [5]; Poa annua, 504 h): 100% | pest or weed control at 320 g/ha (AMARE [6]; Amaranthus retroflexus, 504 h): 100% | pest or weed control at 320 g/ha (DIGSA [7]; Digitaria sanguinalis, 504 h): 100% | pest or weed control at 320 g/ha (MATIN [8]; [12]): 90% | pest or weed control at 320 g/ha (VERPE; Veronica persica, 504 h): 100% | pest or weed control at 1280 g/ha (STEME; Stellaria media, 504 h): 90% | pest or weed control at 1280 g/ha (ECHCG; Echinochloa crus-galli, 504 h): 100% | Post-emergence action against DIGSA (DIGSA [9]): 100% | pest or weed control at 1280 g/ha (AMARE [10]; Amaranthus retroflexus, 504 h): 100% | pest or weed control at 1280 g/ha (POAAN [11]; Poa annua, 504 h): 100% | pest or weed control at 320 g/ha (ALOMY; Alopecurus myosuroides, 504 h): 100%

COC(=O)COc1nn(-c2cc(F)ccc2F)c(-c2ccc(F)nc2)c1Br [VII-089]
Pre-emergence action against MATIN (MATIN [1]): 100% | Pre-emergence action against SETVI (SETVI [2]): 100% | Pre-emergence action against POLCO in % (POLCO): 100% | Post-emergence action against MATIN (MATIN [3]): 90% | Pre-emergence action against SETVI in % (SETVI [4]): 100% | Pre-emergence action against POAAN (POAAN [5]): 100% | Pre-emergence action against AMARE in % (AMARE [6]): 100% | Pre-emergence action against DIGSA in % (DIGSA [7]): 100% | Pre-emergence action against MATIN in % (MATIN [8]): 90% | Pre-emergence action against VERPE in % (VERPE): 100% | Pre-emergence action against STEME (STEME): 90% | Pre-emergence action against ECHCG (ECHCG): 100% | Post-emergence action against DIGSA (DIGSA [9]): 100% | Pre-emergence action against AMARE (AMARE [10]): 100% | Post-emergence action against POAAN (POAAN [11]): 100% | Pre-emergence action at 320 g/ha against ALOMY in % (ALOMY): 100%

O=C(O)COc1nn(-c2ccccc2F)c(-c2ccc(F)nc2)c1I [VII-037]
Pre-emergence action against MATIN (MATIN [1]): 100% | Pre-emergence action against SETVI (SETVI [2]): 100% | Pre-emergence action against POLCO in % (POLCO): 100% | Post-emergence action against MATIN (MATIN [3]): 90% | Pre-emergence action against SETVI in % (SETVI [4]): 100% | Pre-emergence action against POAAN (POAAN [5]): 100% | Pre-emergence action against AMARE in % (AMARE [6]): 100% | Pre-emergence action against DIGSA in % (DIGSA [7]): 100% | Pre-emergence action against MATIN in % (MATIN [8]): 80% | Pre-emergence action against VERPE in % (VERPE): 100% | Pre-emergence action against STEME (STEME): 100% | Pre-emergence action against ECHCG (ECHCG): 100% | Post-emergence action against DIGSA (DIGSA [9]): 90% | Pre-emergence action against AMARE (AMARE [10]): 100% | Post-emergence action against POAAN (POAAN [11]): 100% | Pre-emergence action at 320 g/ha against ALOMY in % (ALOMY): 100%

COC(=O)C(C)Oc1nn(-c2ccccc2)c(-c2ccc(F)nc2)c1Br (stereo not shown) [VII-026]
Pre-emergence action against MATIN (MATIN [1]): 90% | Pre-emergence action against SETVI (SETVI [2]): 100% | Pre-emergence action against POLCO in % (POLCO): 100% | Post-emergence action against MATIN (MATIN [3]): 90% | Pre-emergence action against SETVI in % (SETVI [4]): 80% | Pre-emergence action against POAAN (POAAN [5]): 100% | Pre-emergence action against AMARE in % (AMARE [6]): 100% | Pre-emergence action against DIGSA in % (DIGSA [7]): 100% | Pre-emergence action against MATIN in % (MATIN [8]): 90% | Pre-emergence action against VERPE in % (VERPE): 80% | Pre-emergence action against STEME (STEME): 90% | Pre-emergence action against ECHCG (ECHCG): 90% | Post-emergence action against DIGSA (DIGSA [9]): 100% | Pre-emergence action against AMARE (AMARE [10]): 100% | Post-emergence action against POAAN (POAAN [11]): 100% | Pre-emergence action at 320 g/ha against ALOMY in % (ALOMY): 100%

COC(=O)[C@@H](C)Oc1nn(-c2cc(F)ccc2F)c(-c2cncc(F)c2)c1Br [VII-132]
Pre-emergence action against MATIN (MATIN [1]): 100% | Pre-emergence action against SETVI (SETVI [2]): 100% | Pre-emergence action against POLCO in % (POLCO): 100% | Post-emergence action against MATIN (MATIN [3]): 90% | Pre-emergence action against SETVI in % (SETVI [4]): 100% | Pre-emergence action against POAAN (POAAN [5]): 100% | Pre-emergence action against AMARE in % (AMARE [6]): 100% | Pre-emergence action against DIGSA in % (DIGSA [7]): 100% | Pre-emergence action against MATIN in % (MATIN [8]): 90% | Pre-emergence action against VERPE in % (VERPE): 100% | Pre-emergence action against STEME (STEME): 100% | Pre-emergence action against ECHCG (ECHCG): 100% | Post-emergence action against DIGSA (DIGSA [9]): 100% | Pre-emergence action against AMARE (AMARE [10]): 100% | Post-emergence action against POAAN (POAAN [11]): 100% | Pre-emergence action at 320 g/ha against ALOMY in % (ALOMY): 100%

O=C(O)COc1nn(-c2ccccc2F)c(-c2cncc(F)c2)c1Br [VII-025]
Pre-emergence action against MATIN (MATIN [1]): 100% | Pre-emergence action against SETVI (SETVI [2]): 100% | Pre-emergence action against POLCO in % (POLCO): 100% | Post-emergence action against MATIN (MATIN [3]): 90% | Pre-emergence action against SETVI in % (SETVI [4]): 100% | Pre-emergence action against POAAN (POAAN [5]): 100% | Pre-emergence action against AMARE in % (AMARE [6]): 100% | Pre-emergence action against DIGSA in % (DIGSA [7]): 100% | Pre-emergence action against MATIN in % (MATIN [8]): 100% | Pre-emergence action against VERPE in % (VERPE): 100% | Pre-emergence action against STEME (STEME): 100% | Pre-emergence action against ECHCG (ECHCG): 100% | Post-emergence action against DIGSA (DIGSA [9]): 100% | Pre-emergence action against AMARE (AMARE [10]): 100% | Post-emergence action against POAAN (POAAN [11]): 100% | Pre-emergence action at 320 g/ha against ALOMY in % (ALOMY): 100%

COC(=O)COc1nn(-c2ccccc2F)c(-c2cncc(F)c2)c1Br [VII-035]
Pre-emergence action against MATIN (MATIN [1]): 100% | Pre-emergence action against SETVI (SETVI [2]): 100% | Pre-emergence action against POLCO in % (POLCO): 90% | Post-emergence action against MATIN (MATIN [3]): 90% | Pre-emergence action against SETVI in % (SETVI [4]): 100% | Pre-emergence action against POAAN (POAAN [5]): 100% | Pre-emergence action against AMARE in % (AMARE [6]): 100% | Pre-emergence action against DIGSA in % (DIGSA [7]): 100% | Pre-emergence action against MATIN in % (MATIN [8]): 100% | Pre-emergence action against VERPE in % (VERPE): 100% | Pre-emergence action against STEME (STEME): 100% | Pre-emergence action against ECHCG (ECHCG): 100% | Post-emergence action against DIGSA (DIGSA [9]): 100% | Pre-emergence action against AMARE (AMARE [10]): 100% | Post-emergence action against POAAN (POAAN [11]): 100% | Pre-emergence action at 320 g/ha against ALOMY in % (ALOMY): 100%
